Measurements reported in patent publication US6486143B2, “6-amino- or 6-hydrazino-sulphonyl-3-quinolynyl-phosphonic acid compounds” (Les Laboratoires Servier, priority 2000, dated 2002).

melting point: > 260 °C
Compound: O=c1[nH]c2cc(C(F)(F)F)c(S(=O)(=O)N3CCCCC3)cc2cc1P(=O)(O)O [Example 32, 2-Oxo-6-(1-piperidylsulphonyl)-7-(trifluoromethyl)-1,2-dihydro-3-quinolylphosphonic Acid]
